Measurements: patent publication US20220273757A1, “METHODS FOR ADMINISTERING ANGIOTENSIN II BY […] LEVELS” (La Jolla Pharma, LLC, priority 2019, published 2022)
“And” between values parts separate entries of the source, which are not always exact repeats. Identical values can stand only once.

Key:
Assay type in all cases: in vivo, human
[1] = system: patients with catecholamine-resistant vasodilatory shock; test: 28-day mortality / survival in ATHOS-3 by baseline serum renin; details: for Hazard Ratio (95% CI), mortality, treatment arm: patients with elevated baseline renin only; for unstratified hazard ratio, 28-day mortality, vs placebo: renin above study population median (high renin), N = 128, 95% CI 0.35-0.88
Procedure: (§1) The Angiotensin II for the Treatment of High-Output Shock 3 (ATHOS-3) study has been previously described—NCT02338843. In brief, adults with vasodilatory shock despite volume resuscitation with ≥25 mL/kg and high-dose vasopressors (defined as a norepinephrine equivalent [NED] of greater than 0.2 mcg/kg/min) were randomly assigned 1:1 to receive synthetic human angiotensin II (La Jolla Pharmaceutical Company, San Diego, Calif.) or saline placebo plus standard vasopressors. Randomization was stratified according to MAP at screening and Acute Physiology and Chronic Health Evaluation II (APACHE II) score.
(§2) Study drug infusion started at 20 ng/kg/min and was adjusted during the first 3 hours to increase the MAP to ≥75 mm Hg while keeping other vasopressors constant. Thereafter, the study drug and other vasopressors were adjusted at the discretion of the treating ICU team to maintain a MAP between 65 and 75 mm Hg. At 48 hours, the infusion was discontinued according to a protocol-specified tapering process. However, continuation was allowed for up to 7 days at the discretion of the ICU team.
(§3) Descriptive statistics with 95% confidence intervals (CIs) were used to summarize data according to treatment group. Differences between treatment groups were identified using the Wilcoxon rank-sum test or analysis of variance for continuous or ordinal variables and the chi-square or Fisher's exact test for discrete variables. Time-to-event data was summarized, including survival, using Kaplan-Meier estimates and compared them by log-rank test. Hazard ratios (HRs) are estimated from a proportional hazards model. A two-sided alpha level of 0.05 was used to test for differences in treatment outcomes without adjustments for multiplicity. Correlation coefficients were calculated for renin versus angiotensin I and the angiotensin I/II ratio. Correlation coefficients were also calculated for renin versus angiotensin I for hour 0 (baseline) and hour 3. For multivariate analyses, covariates that were utilized for study stratification (Model A), covariates that were different between groups defined by P<0.10 (Model B), and statistically significant covariates from Models A and B were included in a multivariate logistic regression (Model C). The dichotomized baseline covariates that were utilized for study stratification were MAP <65 mm Hg and APACHE II score >30.

[2] = system: patients with catecholamine-resistant vasodilatory shock; test: Change in CV and total SOFA score from baseline to hour 48, ATHOS-3
Procedure: as §1, §2, §3

angiotensin I = test: Serum angiotensin I level at baseline and hour 3, ATHOS-3 patients; details: hour 3; IQR 13.4%-65.1% reduction; placebo 8.1%
Procedure: as §1, §2
(§4) Serum concentrations of renin, angiotensin I, and angiotensin II were measured after randomization but prior to administration of the study drug and at 3 hours after initiation of study drug.

[3] = system: patients with catecholamine-resistant vasodilatory shock; test: Ventilator liberation, RRT liberation and ICU discharge in ATHOS-3 by baseline renin
Procedure: as §1, §2, §3

[4] = system: patients with catecholamine-resistant vasodilatory shock; test: MAP response at hour 3 by baseline renin, ATHOS-3
Procedure: as §1, §2

serum renin = test: Serum renin concentration at baseline and hour 3 (DRG Renin ELISA), ATHOS-3 patients
Procedure: as §1, §2, §4
Serum renin was measured with the DRG Renin ELISA Kit (DRG Instruments GmbH, Marburg, Germany). The DRG ELISA Kit is a solid-phase enzyme-linked immunosorbent assay based on the sandwich principle. The microtiter wells are coated with a monoclonal (mouse) antibody directed toward a unique antigenic site of the human active renin molecule. An aliquot of patient sample containing endogenous renin is rapidly thawed in a water bath and incubated in the coated well together with assay buffer. After incubation, unbound components are washed off. Finally, enzyme conjugate, a monoclonal anti-renin antibody conjugated with horseradish peroxidase, is added. After incubation, unbound enzyme conjugate is washed off. The amount of bound peroxidase is proportional to the concentration of renin in the sample. Having added the substrate solution, the intensity of color developed is proportional to the concentration of active renin in the patient sample. Personnel who conducted the assays were blinded to the study database and treatment allocation.

[5] = system: patients with catecholamine-resistant vasodilatory shock; test: Adverse events, ATHOS-3 patients with elevated baseline renin; details: patients with elevated renin concentrations at baseline
Procedure: Safety was evaluated by assessment of treatment-emergent adverse events, serious adverse events, and adverse event-related drug discontinuations. Data were analyzed with the use of SAS software, version 9.4 (SAS Institute, Cary, N.C.) and R version 3.5.3. (R Foundation).

patients with severe AKI = test: Renal recovery in patients with severe AKI by serum renin levels, ATHOS-3; details: first 7 days
Procedure: as §1, §2
as §3, with “For multivariate analyses, covariates that were utilized for study stratification (Model A), covariates that were different between groups defined by P<0.10 (Model B), and statistically significant covariates from Models A and B were included in a multivariate logistic regression (Model C). The dichotomized baseline covariates that were utilized for study stratification were MAP <65 mm Hg and APACHE II score >30.” left out

[6] = renin above study population median, N = 55
[7] = renin above study population median, N = 55, listed as Angiotensin II
[8] = renin below study population median
[9] = renin below study population median, N = 64

Substance: Asp-Arg-Val-Tyr-Ile-His-Pro-Phe [angiotensin II]
- HR (95% CI), treatment arm, multivariate ([1]; Table 4A whole cohort, full model): 0.77 (0.54-1.08)
- HR (95% CI), treatment arm, multivariate ([1]; Table 4A whole cohort, step-wise model): 0.77 (0.54-1.08)
- HR (95% CI), treatment arm, multivariate ([1]; Table 4B population below median renin, full model): 1.08 (0.64-1.82)
- HR (95% CI), treatment arm, multivariate ([1]; Table 4B population below median renin, step-wise model): 1.11 (0.66-1.86)
- HR (95% CI), treatment arm, multivariate ([1]; Table 4C population above median renin, full model): 0.62 (0.39-0.98)
- HR (95% CI), treatment arm, multivariate ([1]; Table 4C population above median renin, step-wise model): 0.62 (0.39-0.98)
- HR (95% CI), treatment arm, multivariate ([1]; Table 4D whole cohort with treatment-renin interaction, full model): 1.08 (0.64-1.81)
- HR (95% CI), Treatment * Renin >= Population Median interaction ([1]; Table 4D whole cohort, full model): 0.54 (0.27-1.09)
- HR (95% CI), treatment arm, multivariate ([1]; Table 4D whole cohort, step-wise model): 0.77 (0.54-1.08)
- Day 28 mortality ([1]; baseline renin <Pop Median, N = 73): N = 73, 43.9%
- Day 28 mortality ([1]; baseline renin >=Pop Median, N = 64): N = 64, 50.1%
- HR, mortality sensitivity analysis ([1]; high renin cut-off 2x ULN): 0.69
- HR, mortality sensitivity analysis ([1]; high renin cut-off 3x ULN): 0.57
- HR, mortality sensitivity analysis ([1]; high renin cut-off 4x ULN): 0.63
- HR, mortality sensitivity analysis ([1]; high renin cut-off ULN): 0.76
- HR (95% CI), survival, vs placebo ([1]; high renin, AKI subset, N = 62): 0.51 (0.26-0.99), 0.0411
- HR (95% CI), survival, vs placebo ([1]; high renin, ARDS subset, N = 41): 0.49 (0.21-1.16), 0.0964
- HR (95% CI), survival, vs placebo ([1]; low renin, AKI subset, N = 32): 0.55 (0.19-1.58), 0.2574
- HR (95% CI), survival, vs placebo ([1]; low renin, ARDS subset, N = 34): 1.38 (0.59-3.26), 0.4583
- HR (95% CI), survival, vs placebo ([1]; low renin, all, N = 127): 1.11 (0.66-1.86), 0.7002
- Hazard Ratio (95% CI), mortality, treatment arm ([1]; Model A): 0.58 (0.36-0.93)
- Hazard Ratio (95% CI), mortality, treatment arm ([1]; Model B): 0.62 (0.38-0.99)
- 28-day mortality ([1]; patients with renin above the study population median, N = 55, table gives (95% CI)): 50.9%
- 28-day mortality ([1]; patients with renin above the study population median, N = 55, table gives (95% CI), listed as Angiotensin II): 51% (39%-65%)
- 28-day mortality ([1]; patients with renin below the study population median, N = 64): 45% (34%-58%)
- unstratified hazard ratio, 28-day mortality, vs placebo ([1]; all): 0.56 and 0.556
- unstratified hazard ratio, 28-day mortality, vs placebo ([1]; all, listed as LJPC 501): 0.56 (0.35-0.88), 0.0115
- parameter estimate, treatment, Day 28 survival model ([1]; results available data): −0.298
- difference in 28-day mortality vs placebo ([1]; serum renin below the study population median): no statistically significant difference
- parameter estimate, treatment, Day 28 survival model ([1]; with multiple imputation of missing serum renin): −0.229
- Hour 48 change from baseline in Total SOFA, Mean (SD) ([2]; elevated renin population, N = 54): 1.35±6.032
- Hour 48 change from baseline in Total SOFA, Mean (SD) ([2]; elevated renin population, N = 54, listed as LJPC-501): N = 54, 1.35 (6.032)
- Hour 48 change from baseline in CV SOFA, Mean (SD) ([2]; elevated renin population, N = 55): −1.56±1.793
- Hour 48 change from baseline in CV SOFA, Mean (SD) ([2]; elevated renin population, N = 55, listed as LJPC-501): N = 55, −1.56 (1.793)
- Hour 48 change from baseline in Total SOFA, Mean (SD) ([2]; low renin population, N = 62): N = 62, 0.85 (5.524)
- Hour 48 change from baseline in CV SOFA, Mean (SD) ([2]; low renin population, N = 64): N = 64, −1.77 (1.716)
- change in CV SOFA score compared to placebo ([2]; total ATHOS-3 population, baseline to hour 48): significantly greater
- median reduction in angiotensin I levels (angiotensin I): 40.8%
- RRT Liberation by Day 7 (alive and RRT free) ([3]; renin above study population median): 43%
- ICU Discharge by Day 28 [3, 6]: 44%
- Ventilator Liberation by Day 7 (alive and vent free) [3, 6]: 28%
- ICU Discharge by Day 28 [3, 7]: 44% (32%-58%)
- Ventilator Liberation by Day 7 (alive and vent free) [3, 7]: 28% (18%-43%)
- RRT Liberation by Day 7 (alive and RRT free) ([3]; renin above study population median, listed as Angiotensin II): 43% (25%-66%)
- RRT Liberation by Day 7 (alive and RRT free) [3, 8]: 28% (13%-54%)
- ventilator and RRT liberation, ICU discharge: difference between treatment groups [3, 8]: no differences
- ICU Discharge by Day 28 [3, 9]: 39% (28%-52%)
- Ventilator Liberation by Day 7 (alive and vent free) [3, 9]: 27% (18%-40%)
- MAP Response at Hour 3 ([4]; baseline renin <Pop Median, 57/73 patients): 57/73 (78.1%)
- MAP Response at Hour 3 ([4]; baseline renin >=Pop Median, 39/64 patients): 39/64 (60.9%)
- median reduction in renin concentration (serum renin; 3 hours after initiation of therapy, IQR 37.9%-66.5% reduction, placebo 14.1%): 54.3%
- Renin % Change at Hour 3, Mean (SD) (serum renin; N 102): −45.5 (38.59) ^ %
- Renin % Change at Hour 3, Median (range) (serum renin; N 102): −54.8 (−91.1-161.0) %
- Renin Change at Hour 3, Mean (SD) (serum renin; N 102): −210.3 (307.43) ^
- Renin Change at Hour 3, Median (range) (serum renin; N 102): −99.6 (−1574-496.2)
- Hour 3 Renin, Mean (SD) (serum renin; N 103): 231.8 (416.91) ^
- Hour 3 Renin, Median (range) (serum renin; N 103): 85.0 (4.0-2739.8)
- adverse events or serious adverse events vs placebo [5]: no significant difference
- RR (95% CI), likelihood of renal recovery vs placebo (patients with severe AKI; all patients with severe AKI, N = 105): 2.902 (1.293-6.515)
- RR (95% CI), likelihood of renal recovery vs placebo (patients with severe AKI; severe AKI, renin above study median, N = 62): 4.112 (1.376-12.29), 0.0061
- RR (95% CI), likelihood of renal recovery vs placebo (patients with severe AKI; severe AKI, renin below study median, N = 32): 2.215 (0.429-11.42), 0.3295
